Test [1] deals with Wee-1 kinase (Homo sapiens (Human), UniProt P30291). The test can be described thus: Measurement of Wee-1 kinase activity (ADP-Glo luminescence). Type of test: biochemical. Summed up: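 Activated Wee-1 preincubated 30 min at RT with compound in Tris/MgCl2 buffer with BSA and DTT, then reacted 1 h at RT with poly(Lys,Tyr 4:1) (2.0 μg/mL) and 30 μM ATP as added aliquot. ADP formed measured by ADP-Glo luminescence; IC50 by non-linear regression of % inhibition.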
In general terms: ADP-Glo first removes unused ATP, then detects ADP through luciferase.

Test [2] concerns phosphorylation of Cdc2 at Tyr15. The test can be described thus: ELISA for phosphorylation of Cdc2 at Tyr15 in HT-29 / HCT-116 cells. The settings on record: Homo sapiens. The class given is cell-based. As to the method:
Method 2: Determining the Effect of Compounds on the Phosphorylation of Cdc2 at Tyr15
The colorectal cancer cell lines HT-29 and HCT-116 were purchased from the ATCC and routinely maintained in McCoy's Medium (Invitrogen) supplemented with 10% Foetal Calf Serum.
The cells were trypsinised from their growing vessel and counted, 100 μL of cell suspension containing 6000 cells was pipetted into black 96 well Co-star plates and incubated overnight to allow adherence to the surface at a temperature of 37° C. and an atmosphere of 5% CO2. Test compounds were formulated in DMSO and diluted in foetal calf serum supplemented medium. Incubating medium was removed by aspiration and diluted drug supplemented medium added to each well.
The plate was returned to the incubator for an additional eight hours at 37° C. and an atmosphere of 5% CO2. Post incubation, the drug supplemented medium was aspirated from each well and the cells were washed once in ice-cold phosphate buffered saline (PBS). 100 μL of cell lysis buffer (Cell Signalling Technologies #9803) containing 20 mM Tris, 150 mM NaCl, 1 mM EDTA, 1 mM EGTA, 1% Triton-X100, 2.5 mM sodium pyrophosphate, 1 mM glycerophosphate, 1 mM Na3VO4 and 1 μg/mL leupeptin was added to each well of the 96 well plate and incubated at 4° C. for 30 min. The samples on the plate were snap frozen at −80° C. until required. Immediately before the continuation of the assay, the sample plate was thawed and centrifuged at 4° C. for 10 min and the supernatant transferred to secondary tubes or 96 well plate.
Cell supernatant was mixed in a ratio of 1:1 with sample dilutent buffer and vortexed for one minute. 100 μL of diluted sample was pipetted into pre-coated plates containing a rabbit polyclonal antibody for phospho-cdc2 (Tyr15) (Cell Signalling Technologies PathScan kit #7176). The plate was sealed and incubated overnight at 4° C.
The plate seal was removed and the well contents aspirated, followed by 3×5 min washes with 200 μL of diluted wash buffer. Between each wash the plate was tapped firmly onto blotting paper to ensure the removal of all kit solution. 100 μL of kit detection antibody was added to each well and the plate re-sealed and incubated at 37° C. for 1 h. Post incubation the plate was washed and processed in a similar manner to that previously described.
100 μL of horseradish peroxidise-linked secondary antibody was added to each test well, the plate sealed and incubated for thirty minutes at 37° C. Post incubation, the plate was washed as previously stated, followed by the addition of 100 μL of 3,3′,5,5′ tetramethylbenzidine (TMB reagent). The plate was sealed and incubated at RT for 30 min.
100 μL of stop solution was added to each well and the underside of the plate wiped with a lint-free tissue, prior to spectrophotometric determination. Absorbance from each well was read at 450 nm within 30 min of the addition of the stop solution.
The percentage of phospho-cdc2 was calculated compared to DMSO control and plotted versus the concentration of inhibitor using GraphPad Prism. Data was fitted using non-linear regression analysis and IC50 values generated.
(In general: An ELISA detects its analyte on a solid surface through an enzyme-linked reagent.)

Test [3] has as its system HT29 cells. The test is described as follows: Cell viability (CellTiter-Glo), HT29. The following applies: Homo sapiens, HT-29; cell viability after 72 hours. The class given is cell-based. The method, then: (§1) All cell lines (HT29, A427, A498, SKLU-1) were obtained from the American Type Culture Collection (ATCC), maintained in the recommended media supplemented with 10% (v/v) FBS, 1% (v/v) Penicillin/streptomycin and kept at 37° C. in a humidified atmosphere with 5% CO2. Cells were seeded in 96 wp format typically at a seeding density of 3500-5000 cells/well and treated after 24 hours with increasing concentration of compound from 0 to 100 μM in ½ log unit increments. Cell viability was assessed after 72 hours (HT29, A427) or after 6 days (SKLU-1, A498) by CellTiter-Glo® as recommended by the manufacturer's instructions (Promega). Analysis and EC50 values were derived using GraphPadPrism.
(In general: In ATP-based viability assays light output follows the ATP content of the culture.)

The subject of test [4] is A427 cells. The test can be described thus: Cell viability (CellTiter-Glo), A427. Type of test: cell-based. The settings on record: Homo sapiens, A-427; cell viability after 72 hours. As to the method: as §1
For test [5], the system named is A498 cells. The test is described as follows: Cell viability (CellTiter-Glo), A498. Type of test: cell-based. The settings on record: Homo sapiens, A498, 144 h; cell viability after 6 days. The method, then: as §1
The subject of test [6] is SK-LU-1 cells. The test is described as follows: Cell viability (CellTiter-Glo), SK-LU-1. The class given is cell-based. The settings on record: Homo sapiens, SK-LU-1, 144 h; cell viability after 6 days. The method, then: as §1
The mark [7] stands for this setting: 8 h, Table 2, colorectal cancer cells, eight hours incubation, read-out: ELISA p-CDC2 EC50.
The mark [8] stands for this setting: Table 7, data obtained as described in the experimental section of the current invention, read-out: Wee-1/nM.
The mark [9] stands for this setting: Table 3, read-out: ELISA p-CDC2 EC50.

Read-outs that look alike come from different tables or passages of the source.

Chain of Wee-1 kinase (P30291 whole entry): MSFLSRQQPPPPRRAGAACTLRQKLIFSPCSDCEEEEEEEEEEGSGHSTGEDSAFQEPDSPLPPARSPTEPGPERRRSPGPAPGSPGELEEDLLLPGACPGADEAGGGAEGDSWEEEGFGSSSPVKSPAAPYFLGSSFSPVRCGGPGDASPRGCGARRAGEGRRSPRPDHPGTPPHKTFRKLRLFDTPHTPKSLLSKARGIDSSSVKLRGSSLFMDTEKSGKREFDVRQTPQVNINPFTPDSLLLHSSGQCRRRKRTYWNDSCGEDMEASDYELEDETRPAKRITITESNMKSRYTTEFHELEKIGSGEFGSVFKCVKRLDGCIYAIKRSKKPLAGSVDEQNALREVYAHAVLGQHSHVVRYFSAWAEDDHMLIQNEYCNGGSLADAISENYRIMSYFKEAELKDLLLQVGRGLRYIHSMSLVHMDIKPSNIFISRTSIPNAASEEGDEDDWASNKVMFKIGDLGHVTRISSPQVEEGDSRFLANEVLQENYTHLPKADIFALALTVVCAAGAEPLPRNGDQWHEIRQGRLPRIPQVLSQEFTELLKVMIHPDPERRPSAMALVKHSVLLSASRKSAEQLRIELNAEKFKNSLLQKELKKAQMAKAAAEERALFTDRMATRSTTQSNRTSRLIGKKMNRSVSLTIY

Take `C=CCn1c(=O)c2cnc(Nc3ccc(N4CCN(C(C)C)CC4)cc3)nc2n1-c1cccc(N=S(C)(C)=O)n1` [Example 7, 1-(6-{[Dimethyl(oxo)-λ^6-sulfanylidene]amino}pyridine-2-yl)-2-(prop-2-en-1-yl)-6-({4-[4-(propan-2-yl)piperazin-1-yl]phenyl}amino)-1H,2H,3H-pyrazolo[3,4-d]pyrimidin-3-one]: the IC50 in test [1] (read-out: Wee1 IC50) amounted to 0.7 nM. Further, in test [2] (setting [7]), the EC50 came to 9 nM.

As to `C=CCn1c(=O)c2cnc(Nc3ccc(N4CCOCC4)cc3)nc2n1-c1cccc(N=S(C)(C)=O)n1` [Example 12, 1-(6-{[Dimethyl(oxo)-λ^6-sulfanylidene]amino}pyridine-2-yl)-6-{[4-(morpholin-4-yl)phenyl]amino}-2-(prop-2-en-1-yl)-1H,2H,3H-pyrazolo[3,4-d]pyrimidin-3-one], the IC50 in test [1] (setting [8]) and in test [1] (read-out: Wee1 IC50) was 0.5 nM each time. In addition, the EC50 in test [2] (setting [7]) is 26 nM; in test [2] (setting [9]), 26 nM; in test [3], 27 nM; in test [4], 27 nM; in test [5], 27 nM; in test [6] it was 30 nM.

For `C=CCn1c(=O)c2cnc(Nc3ccc(N4CCNCC4)c(Cl)c3)nc2n1-c1cccc(N=S(C)(C)=O)n1` [Example 14, 6-{[3-Chloro-4-(piperazin-1-yl)phenyl]amino}-1-(6-{[dimethyl(oxo)-λ^6-sulfanylidene]amino}pyridine-2-yl)-2-(prop-2-en-1-yl)-1H,2H,3H-pyrazolo[3,4-d]pyrimidin-3-one], the IC50 in test [1] (read-out: Wee1 IC50) is 0.8 nM. The EC50 in test [2] (setting [7]) was 5 nM.

In the case of `CC(C)n1c(=O)c2cnc(Nc3ccc(N4CCN(C)CC4)cc3)nc2n1-c1cccc(N=S(C)(C)=O)n1` [Example 20, 1-(6-{[Dimethyl(oxo)-λ^6-sulfanylidene]amino}pyridin-2-yl)-6-{[4-(4-methylpiperazin-1-yl)phenyl]amino}-2-(propan-2-yl)-1H,2H,3H-pyrazolo[3,4-d]pyrimidin-3-one], the IC50 in test [1] (Table 6, Present Invention, read-out: Wee-1/nM) came out at 1.4 nM; in test [1] (read-out: Wee1 IC50), 1.4 nM. Moreover, the EC50 in test [2] (setting [7]) turned out to be 47 nM; in test [2] (Table 6, Present Invention, read-out: ELISA/nM) it was 47 nM.

As for `C=CCn1c(=O)c2cnc(Nc3ccc(N4CCOCC4)c(C)c3)nc2n1-c1cccc(N=S(C)(C)=O)n1` [Example 21, 1-(6-{[Dimethyl(oxo)-λ^6-sulfanylidene]amino}pyridin-2-yl)-6-{[3-methyl-4-(morpholin-4-yl)phenyl]amino}-2-(prop-2-en-1-yl)-1H,2H,3H-pyrazolo[3,4-d]pyrimidin-3-one], the IC50 in test [1] (read-out: Wee1 IC50) was found to be 0.1 nM. Moreover, the EC50 in test [2] (setting [7]) worked out at 2 nM.

On to `C=CCn1c(=O)c2cnc(Nc3ccc(N4CCNCC4)c(C)c3)nc2n1-c1cccc(N=S(C)(C)=O)n1` [Example 26, 1-(6-{[Dimethyl(oxo)-λ^6-sulfanylidene]amino}pyridin-2-yl)-6-{[3-methyl-4-(piperazin-1-yl)phenyl]amino}-2-(prop-2-en-1-yl)-1H,2H,3H-pyrazolo[3,4-d]pyrimidin-3-one], for which, in test [1] (read-out: Wee1 IC50), the IC50 is 0.4 nM. Also, in test [2] (setting [7]), the EC50 came out at 4 nM.

Consider `C=CCn1c(=O)c2cnc(Nc3ccc(N4CCO[C@H](COC)C4)cc3)nc2n1-c1cccc(N=S(C)(C)=O)n1` [Example 54, 1-(6-{[Dimethyl(oxo)-λ^6-sulfanylidene]amino}pyridin-2-yl)-6-({4-[(2S)-2-(methoxymethyl)morpholin-4-yl]phenyl}amino)-2-(prop-2-en-1-yl)-1H,2H,3H-pyrazolo[3,4-d]pyrimidin-3-one], for which the IC50 in test [1] (read-out: Wee1 IC50) is 0.3 nM. For the same compound, the EC50 was determined as 5 nM in test [2] (setting [7]); 5 nM in test [2] (setting [9]); 32 nM in test [3]; 17 nM in test [4]; 16 nM in test [5]; 35 nM in test [6].

For `C=CCn1c(=O)c2cnc(Nc3ccc(N(C)C)cc3)nc2n1-c1cccc(N=S(C)(C)=O)n1` [Example 57, 1-(6-{[Dimethyl(oxo)-λ^6-sulfanylidene]amino}pyridin-2-yl)-6-{[4-(dimethylamino)phenyl]amino}-2-(prop-2-en-1-yl)-1H,2H,3H-pyrazolo[3,4-d]pyrimidin-3-one], the IC50 in test [1] (setting [8]) and in test [1] (read-out: Wee1 IC50) was 0.2 nM each time. Besides, the EC50 in test [2] (setting [7]) worked out at 6 nM.

`C=CCn1c(=O)c2cnc(Nc3ccc(N4C[C@H]5COC[C@H]5C4)cc3)nc2n1-c1cccc(N=S(C)(C)=O)n1` [Example 67, 6-({4-[(3aR,6aS)-Hexahydro-1H-furo[3,4-c]pyrrol-5-yl]phenyl}amino)-1-(6-{[dimethyl(oxo)-λ^6-sulfanylidene]amino}pyridin-2-yl)-2-(prop-2-en-1-yl)-1H,2H, 3H-pyrazolo[3,4-d]pyrimidin-3-one]: the IC50 in test [1] (read-out: Wee1 IC50) is 0.1 nM. In test [2] (setting [7]), the EC50 came out at 7 nM.

Turning to `C=CCn1c(=O)c2cnc(Nc3ccc(N4CCN[C@H](COC)C4)cc3)nc2n1-c1cccc(N=S(C)(C)=O)n1` [Example 76, 1-(6-{[Dimethyl(oxo)-λ^6-sulfanylidene]amino}pyridin-2-yl)-6-({4-[(3S)-3-(methoxymethyl)piperazin-1-yl]phenyl}amino)-2-(prop-2-en-1-yl)-1H,2H, 3H-pyrazolo[3,4-d]pyrimidin-3-one], the IC50 in test [1] (read-out: Wee1 IC50) came to 0.6 nM. In test [2] (setting [7]), the EC50 was 28 nM.

(Values after US10766902B2, “Wee-1 inhibiting pyrazolopyrimidinone compounds” (ALMAC DISCOVERY LIMITED, priority 2016, dated 2020).)
